The text below walks through data of patent publication US11542297B2, “Compositions and methods for treating CNS disorders” (Sage Therapeutics, Inc., priority 2014, dated 2023).

The target in one test is α1β2γ2 GABAA receptors (Homo sapiens (Human), UniProt P14867+P47870). Put plainly: Patch clamp electrophysiology of recombinant α1β2γ2 GABAA receptors (Qpatch in Ltk cells). It is filed as cell-based. The settings on record: 10 μM test article, potentiation of GABA EC20 (2 μM) current. The protocol: Cellular electrophysiology is used to measure the pharmacological properties of our GABAA receptor modulators in heterologous cell systems. […] LTK cells are stably transfected with the α1β2γ2 subunits of the GABA receptor and CHO cells are transiently transfected with the α4β3δ subunits via the Lipofecatamine method. Cells were passaged at a confluence of about 50-80% and then seeded onto 35 mm sterile culture dishes containing 2 ml culture complete medium without antibiotics or antimycotics. Confluent clusters of cells are electrically coupled (Pritchett et al., Science, 1988, 242, 1306-1308).
Whole cell currents were measured with HEKA EPC-10 amplifiers using PatchMaster software or by using the high throughput QPatch platform (Sophion). […] In some cases 0.005% cremophor was also added. Intracellular (pipette) solution contained: KCl 130 mM, MgCl2 1 mM, Mg-ATP 5 mM, HEPES 10 mM, EGTA 5 mM, pH 7.2. […] For manual patch clamp recordings, cell culture dishes were placed on the dish holder of the microscope and continuously perfused (1 ml/min) with bath solution. […] For experiments using the QPatch system, cells were transferred as suspension to the QPatch system in the bath solution and automated whole cell recordings were performed.
Cells were voltage clamped at a holding potential of −80 mV. […]
On the technique in general: Patch clamp records ionic current or voltage across a cell membrane.
For `C[C@@]1(O)CC[C@@]2(C)[C@@H](CC[C@@H]3[C@@H]2CC[C@]2(C)[C@@H](C(=O)Cn4nnc5ccc(Cl)c(F)c54)CC[C@@H]32)C1` [Compound 113], the “GABA (α1β2γ2) Qpatch in Ltk, % efficacy at 10 μM” value was “B (“B” >100-500)”.

The same test, now with this note: 10 μM test article, potentiation of GABA EC20 (2 μM) current, read-out: GABA (α1β2γ2) Qpatch in Ltk, % efficacy at 10 μM.
As to `C[C@@]1(O)CC[C@@]2(C)[C@H](CC[C@@H]3[C@@H]2CC[C@]2(C)[C@@H](C(=O)Cn4nc5ccc(OC(F)(F)F)cc5n4)CC[C@@H]32)C1` [Compound 106], the Emax at 10 µM was in the range of 100 to 500%.

The next test addresses rat brain cortical membranes ([35S]-TBPS binding, GABA receptor complex). Put plainly: Steroid inhibition of [35S]-TBPS binding. Conditions: in the presence of 5 μM GABA, read-out: 35S-TBPS Radioligand Displacement (IC50). The protocol:
TBPS binding assays using rat brain cortical membranes in the presence of 5 μM GABA has been described (Gee et al, J. Pharmacol. Exp. Ther. 1987, 241, 346-353; Hawkinson et al, Mol. Pharmacol. 1994, 46, 977-985; Lewin, A. H et al., Mol. Pharmacol. 1989, 35, 189-194).
Briefly, cortices are rapidly removed following decapitation of carbon dioxide-anesthetized Sprague-Dawley rats (200-250 g). The cortices are homogenized in 10 volumes of […] using a glass/teflon homogenizer and centrifuged at 1500×g for 10 min at 4° C. The resultant supernatants are centrifuged at 10,000×g for 20 min at 4° C. to obtain the P2 pellets. The P2 pellets are resuspended in 200 mM NaCl/50 mM Na—K phosphate pH 7.4 buffer and centrifuged at 10,000×g for 10 min at 4° C. This washing procedure is repeated twice and the pellets are resuspended in 10 volumes of buffer. Aliquots (100 μL) of the membrane suspensions are incubated with 3 nM [^35S]-TBPS and 5 μL aliquots of test drug dissolved in dimethyl sulfoxide (DMSO) (final 0.5%) in the presence of 5 μM GABA. The incubation is brought to a final volume of 1.0 mL with buffer. […] Following a 90 min incubation at room temp, the assays are terminated by filtration through glass fiber filters (Schleicher and Schuell No. 32) using a cell harvester (Brandel) and rinsed three times with ice-cold buffer. Filter bound radioactivity is measured by liquid scintillation spectrometry. Non-linear curve fitting of the overall data for each drug averaged for each concentration is done using Prism (GraphPad).
Various compounds are or can be screened to determine their potential as modulators of [^35S]-TBPS binding in vitro. These assays are or can be performed in accordance with the above discussed procedures.
(Displacement assays read how much labelled ligand stays bound in the presence of the test substance.)
A word on the IC50: it is the point on the concentration scale where inhibition reaches its midpoint. For `C[C@@]1(O)CC[C@@]2(C)[C@H](CC[C@@H]3[C@@H]2CC[C@]2(C)[C@@H](C(=O)Cn4cc(C#N)cn4)CC[C@@H]32)C1` [Compound 10, 1-(2-((3R,5R,8R,9S,10S,13S,14S,17S)-3-hydroxy-3,10,13-trimethylhexadecahydro-1H-cyclopenta[a]phenanthren-17-yl)-2-oxoethyl)-1H-pyrazole-4-carbonitrile], the IC50 was under 10 nM.
As for `C[C@H](C(=O)[C@H]1CC[C@H]2[C@@H]3CC[C@@H]4C[C@](C)(O)CC[C@]4(C)[C@H]3CC[C@]12C)n1nccn1` [Compound 56, (R)-1-((3R,5R,8R,9S,10S,13S,14S,17S)-3-hydroxyl-3,10,13-trimethylhexadecahydro-1H-cyclopenta[a]phenanthren-17-yl)-2-(2H-1,2,3-triazol-2-yl)propan-1-one], the IC50 was 50 to 100 nM.
On the same count and under the same terms, the figure for `C[C@H](C(=O)[C@H]1CC[C@H]2[C@@H]3CC[C@@H]4C[C@](C)(O)CC[C@]4(C)[C@H]3CC[C@]12C)n1ccnn1` [Compound 58, (R)-1-((3R,5R,8R,9S,10S,13S,14S,17S)-3-hydroxy-3,10,13-trimethylhexadecahydro-1H-cyclopenta[a]phenanthren-17-yl)-2-(1H-1,2,3-triazol-1-yl)propan-1-one] is over 500 nM.
The same measure, in the same setting: under `C[C@@H](C(=O)[C@H]1CC[C@H]2[C@@H]3CC[C@@H]4C[C@](C)(O)CC[C@]4(C)[C@H]3CC[C@]12C)n1nc2ccccc2n1` [Compound 61, (S)-2-(2H-benzo[d][1,2,3]triazol-2-yl)-1-((3R,5R,8R,9S,10S,13S,14S, 17S)-3-hydroxy-3,10,13-trimethylhexadecahydro-1H-cyclopenta[a]phenanthren-17-yl)propan-1-one] stands 100 to 500 nM; under `C[C@@H](C(=O)[C@H]1CC[C@H]2[C@@H]3CC[C@@H]4C[C@](C)(O)CC[C@]4(C)[C@H]3CC[C@]12C)n1nnc2ccccc21` [Compound 63, (S)-2-(1H-benzo[d][1,2,3]triazol-1-yl)-1-((3R,5R,8R,9S,10S,13S,14S,17S)-3-hydroxy-3,10,13-trimethylhexadecahydro-1H-cyclopenta[a]phenanthren-17-yl)propan-1-one], 10 to 50 nM; under `C[C@H](C(=O)[C@H]1CC[C@H]2[C@@H]3CC[C@H]4C[C@](C)(O)CC[C@]4(C)[C@H]3CC[C@]12C)n1cc(C#N)cn1` [Compound 80, 1-((R)-1-((3R,5S,8R,9S,10S,13S,14S,17S)-3-hydroxy-3,10,13-trimethylhexadecahydro-1H-cyclopenta[a]phenanthren-17-yl)-1-oxopropan-2-yl)-1H-pyrazole-4-carbonitrile], 100 to 500 nM.
Consider `C[C@@H](C(=O)[C@H]1CC[C@H]2[C@@H]3CC[C@H]4C[C@](C)(O)CC[C@]4(C)[C@H]3CC[C@]12C)n1cc(C#N)cn1` [Compound 81, 1-((S)-1-((3R,5S,8R,9S,10S,13S,14S,17S)-3-hydroxy-3,10,13-trimethylhexadecahydro-1H-cyclopenta[a]phenanthren-17-yl)-1-oxopropan-2-yl)-1H-pyrazole-4-carbonitrile], for which the IC50 fell in the range of 10 to 50 nM.
In the case of `CN(C)C(=O)c1cnn(CC(=O)[C@H]2CC[C@H]3[C@@H]4CC[C@H]5C[C@](C)(O)CC[C@]5(C)[C@H]4CC[C@]23C)c1` [Compound 86], the IC50 was under 10 nM.
On the same count and under the same terms, under `C[C@H](C(=O)[C@H]1CC[C@H]2[C@@H]3CC[C@H]4C[C@](C)(O)CC[C@]4(C)[C@H]3CC[C@]12C)n1nccn1` [Compound 90, (R)-1-((3R,5S,8R,9S,10S,13S,14S,17S)-3-hydroxy-3,10,13-trimethylhexadecahydro-1H-cyclopenta[a]phenanthren-17-yl)-2-(2H-1,2,3-triazol-2-yl)propan-1-one] stands over 500 nM; under `C[C@H](C(=O)[C@H]1CC[C@H]2[C@@H]3CC[C@H]4C[C@](C)(O)CC[C@]4(C)[C@H]3CC[C@]12C)n1ccnn1` [Compound 92, (R)-1-((3R,5S,8R,9S,10S,13S,14S,17S)-3-hydroxy-3,10,13-trimethylhexadecahydro-1H-cyclopenta[a]phenanthren-17-yl)-2-(1H-1,2,3-triazol-1-yl)propan-1-one], over 500 nM.
Still for that read-out and setting: under `C[C@H](C(=O)[C@H]1CC[C@H]2[C@@H]3CC[C@H]4C[C@](C)(O)CC[C@]4(C)[C@H]3CC[C@]12C)n1nnc2ccccc21` [Compound 100, (R)-2-(1H-benzo[d][1,2,3]triazol-1-yl)-1-((3R,5S,8R,9S,10S,13S,14S,17S)-3-hydroxy-3,10,13-trimethylhexadecahydro-1H-cyclopenta[a]phenanthren-17-yl)propan-1-one] stands over 500 nM.
Consider `CC(C)(C(=O)[C@H]1CC[C@H]2[C@@H]3CC[C@H]4C[C@](C)(O)CC[C@]4(C)[C@H]3CC[C@]12C)n1nnc2ccccc21` [Compound 102, 2-(1H-benzo[d][1,2,3]triazol-1-yl)-1-((3R,5S,8R,9S,10S,13S,14S,17S)-3-hydroxy-3,10,13-trimethylhexadecahydro-1H-cyclopenta[a]phenanthren-17-yl)-2-methylpropan-1-one], for which the IC50 is over 500 nM.
`C[C@@]1(O)CC[C@@]2(C)[C@H](CC[C@@H]3[C@@H]2CC[C@]2(C)[C@@H](C(=O)Cn4nc5ccc(S(C)(=O)=O)cc5n4)CC[C@@H]32)C1` [Compound 104, 1-((3R,5R,8R,9S,10S,13S,14S,17S)-3-hydroxy-3,10,13-trimethylhexadecahydro-1H-cyclopenta[a]phenanthren-17-yl)-2-(5-(methylsulfonyl)-2H-benzo[d][1,2,3]triazol-2-yl)ethanone]: the IC50 was under 10 nM.
On to `CC(C(=O)[C@H]1CC[C@H]2[C@@H]3CC[C@H]4C[C@](C)(O)CC[C@]4(C)[C@H]3CC[C@]12C)N1CCOCC1` (stereo partly drawn) [Compound 155], for which the IC50 was over 500 nM.
For `C[C@@]1(O)CC[C@@]2(C)[C@@H](CC[C@@H]3[C@@H]2CC[C@]2(C)[C@@H](C(=O)Cn4nc5cccc(F)c5n4)CC[C@@H]32)C1` [Compound 246], the IC50 was under 10 nM.
For the compound `CSc1ccc2nnn(CC(=O)[C@H]3CC[C@H]4[C@@H]5CC[C@H]6C[C@](C)(O)CC[C@]6(C)[C@H]5CC[C@]34C)c2c1` [Compound 248], the IC50 was under 10 nM.
